{"source": "patent US20040077881A1", "about": "“$G(d)1-pyrrolines used in pest control” (priority 2001, published 2004)", "key": {"[1]": {"test_system": "caterpillars of the diamond-back moth (Plutella xylostella)", "assay": "Plutella test", "type": "in vivo", "settings": "1000 ppm, cabbage leaves dipped", "protocol": "(§1) [table] To produce a suitable preparation of active compound, 1 part by weight of active compound is mixed with the stated amounts of solvent and emulsifier, and the concentrate is diluted with emulsifier-containing water to the desired concentration. Cabbage leaves (Brassica oleracea) are treated by being dipped into the preparation of active compound of the desired concentration and are populated with caterpillars of the diamond-back moth (Plutella xylostella) whilst the leaves are still moist. After the desired period of time, the kill in % is determined. 100% means that all caterpillars have been killed; 0% means that none of the caterpillars have been killed."}, "[2]": {"test_system": "caterpillars of the army-worm (Spodoptera frugiperda)", "assay": "Spodoptera frugiperda test", "type": "in vivo", "settings": "1000 ppm, cabbage leaves dipped", "protocol": "as §1, with “army-worm (Spodoptera frugiperda)” for “diamond-back moth (Plutella xylostella)”"}, "[3]": {"test_system": "caterpillars of the army-worm (Spodoptera exigua)", "assay": "Spodoptera exigua test", "type": "in vivo", "settings": "1000 ppm, cabbage leaves dipped", "protocol": "as §1, with “army-worm (Spodoptera exigua)” for “diamond-back moth (Plutella xylostella)”"}, "[4]": {"test_system": "Amblyomma variegatum or A. hebraeum, nymphs which have sucked themselves full", "assay": "Nymph ecdysis test on polyphagous ticks", "type": "in vivo", "settings": "100 ppm; nymphs immersed for 1 minute; assessed after 4 to 6 weeks", "protocol": "[table] 20 mg of active compound are dissolved in 1 ml of dimethyl sulphoxide, more dilute concentrations are prepared by dilution with dist. H2O. 10 nymphs which have sucked themselves full are immersed for 1 minute into the preparation of active compound to be tested. The animals are transferred to petri dishes (Ø0 9.5 cm) fitted with filter discs and covered. After the nymphs have remained in a controlled-environment cabinet for 4 to 6 weeks, the effect on ecdysis is determined. 100% means that none of the animals have undergone normal ecdysis. 0% means that all animals have undergone ecdysis."}, "[5]": {"test_system": "Heliothis virescens caterpillars", "assay": "Heliothis virescens test", "type": "in vivo", "settings": "1000 ppm, soyabean shoots dipped", "protocol": "Solvent: 30 parts by weight of dimethylformamide Emulsifier: 1 part by weight of alkylaryl polyglycol ether To produce a suitable preparation of active compound, 1 part by weight of active compound is mixed with the stated amounts of solvent and emulsifier, and the concentrate is diluted with emulsifier-containing water to the desired concentration. Soyabean shoots (Glycine max) are treated by being dipped into the preparation of active compound of the desired concentration and populated with Heliothis virescens caterpillars whilst the leaves are still moist. After the desired period of time, the kill in % is determined. 100% means that all caterpillars have been killed; 0% means that none of the caterpillars have been killed."}, "[6]": {"assay": "logP determination by HPLC (EEC directive 79/831 Annex V.A8, reversed-phase C 18)", "type": "physicochemical", "settings": "reversed-phase HPLC column (C 18), pH 2.3, HPLC, reversed-phase column (C 18), 43° C., pH 2.3, 0.1% aqueous phosphoric acid/acetonitrile; read-out: log P", "protocol": "The stated logP values were determined in accordance with EEC directive 79/831 Annex V.A8 by HPLC (High Performance Liquid Chromatography) using a reversed-phase column (C 18). Temperature: 43° C. In the acidic range, the determination was carried out at pH 2.3 using the mobile phases 0.1% aqueous phosphoric acid and acetonitrile; linear gradient from 10% acetonitrile to 90% acetonitrile."}, "Lucilia cuprina larvae": {"test_system": "Lucilia cuprina larvae", "assay": "Blowfly larvae test / development-inhibitory action", "type": "in vivo", "settings": "100 ppm", "protocol": "[table] 20 mg of active compound are dissolved in 1 ml of dimethyl sulphoxide, more dilute concentrations are prepared by dilution with dist. H2O. About 20 Lucilia cuprina larvae are introduced into a test tube which contains about 1 cm^3 of horsemeat and 0.5 ml of the preparation of active compound to be tested. The activity of the preparation of active compound is determined after 24 and 48 hours. The test tubes are transferred into a beaker whose bottom is covered with sand. After a further 2 days, the test tubes are removed and the pupae are counted. The activity of the preparation of active compound is assessed using the number of flies that have hatched after 1.5 times the development period of an untreated control. 100% means that none of the flies have hatched; 0% means that all of the flies have hatched normally."}, "[7]": {"test_system": "fruit tree spider mite (Panonychus ulmi)", "assay": "Panonychus test", "type": "in vivo", "settings": "200 ppm, plum trees sprayed", "protocol": "To produce a suitable preparation of active compound, 1 part by weight of active compound is mixed with the stated amounts of solvent and emulsifier, and the concentrate is diluted with emulsifier-containing water to the desired concentration.\nPlum trees (Prunus domestica) of a height of about 30 cm which are heavily infested by all stages of the fruit tree spider mite (Panonychus ulmi) are sprayed with a preparation of active compound of the desired concentration.\nAfter the desired period of time, the effect in % is determined. 100% means that all spider mites have been killed; 0% means that none of the spider mites have been killed."}}, "data": [{"compound": "Fc1cccc(F)c1C1=NC(c2ccc(-c3ccc(OC(F)(F)F)cc3)cc2)CC1Cl", "note": "(centres unmarked) [drawing 65]", "values": [{"measurement": "Kill rate in % after 6 d", "setting": "[1]", "result": 100, "unit": "%"}]}, {"compound": "Fc1cccc(F)c1C1=NC(c2ccc(-c3ccc(OC(F)(F)F)cc3)cc2)CC1Cl", "note": "(centres unmarked) [drawing 70]", "values": [{"measurement": "Kill rate in % after 7 d", "setting": "[2]", "result": 100, "unit": "%"}]}, {"compound": "Fc1cccc(F)c1C1=N[C@@H](c2ccc(-c3ccc(OC(F)(F)F)cc3)cc2)CC1(Cl)Cl", "note": "[drawing 68]", "values": [{"measurement": "Kill rate in % after 6 d", "setting": "[3]", "result": 100, "unit": "%"}]}, {"compound": "Fc1cccc(F)c1C1=N[C@@H](c2ccc(-c3ccc(OC(F)(F)F)cc3)cc2)CC1(Cl)Cl", "note": "[drawing 88]", "values": [{"measurement": "Effect on ecdysis in %", "setting": "[4]", "result": 100, "unit": "%"}]}, {"compound": "Fc1cccc(F)c1C1=N[C@@H](c2ccc(-c3ccc(OC(F)(F)F)cc3)cc2)CC1(Cl)Cl", "note": "[drawing 71]", "values": [{"measurement": "Kill rate in % after 7 d", "setting": "[2]", "result": 100, "unit": "%"}]}, {"compound": "Fc1cccc(F)c1C1=N[C@@H](c2ccc(-c3ccc(OC(F)(F)F)cc3)cc2)C/C1=C\\c1ccc(Br)cc1", "note": "[drawing 73]", "values": [{"measurement": "Kill rate in % after 7 d", "setting": "[2]", "result": 100, "unit": "%"}]}, {"compound": "O=S(=O)(Oc1ccc(-c2ccc([C@H]3C[C@H](Cl)C(c4c(F)cccc4F)=N3)cc2)cc1)C(F)(F)F", "note": "[drawing 89]", "values": [{"measurement": "Effect on ecdysis in %", "setting": "[4]", "result": 100, "unit": "%"}]}, {"compound": "Fc1cccc(F)c1C1=N[C@@H](c2ccc(-c3ccc(OC(F)(F)F)cc3)cc2)CC1(Br)Br", "note": "[drawing 72]", "values": [{"measurement": "Kill rate in % after 7 d", "setting": "[2]", "result": 100, "unit": "%"}]}, {"compound": "Fc1cccc(F)c1C1=NC(c2ccc(-c3ccc(OC(F)(F)F)cc3)cc2)CC1Cl", "note": "(centres unmarked) [drawing 53]", "values": [{"measurement": "Kill rate in % after 6 d", "setting": "[5]", "result": 100, "unit": "%"}]}, {"compound": "Fc1cccc(F)c1C1=NC(c2ccc(-c3ccc(OC(F)(F)F)cc3)cc2)CC1(Cl)Cl", "note": "(centres unmarked) [Example 4, 4,4-dichloro-5-(2,6-difluorophenyl)-2-[4′-(trifluoromethoxy)-1,1′-biphenyl-4-yl]-3,4-dihydro-2H-pyrrole]", "values": [{"measurement": "melting point", "result": "60 to 61", "unit": "°C"}, {"measurement": "chromatographic logP", "setting": "[6]", "result": 5.92}]}, {"compound": "Fc1cccc(F)c1C1=NC(c2ccc(-c3ccc(OC(F)(F)F)cc3)cc2)CC1(Cl)Cl", "note": "(centres unmarked) [drawing 84]", "values": [{"measurement": "Kill rate in % after 48 h", "setting": "Lucilia cuprina larvae", "result": 100, "unit": "%"}]}, {"compound": "O=S(=O)(Oc1ccc(-c2ccc([C@H]3C[C@H](Cl)C(c4c(F)cccc4F)=N3)cc2)cc1)C(F)(F)F", "note": "[drawing 75]", "values": [{"measurement": "Kill rate in % after 7 d", "setting": "[2]", "result": 100, "unit": "%"}]}, {"compound": "Fc1cccc(F)c1C1=NC(c2ccc(-c3ccc(OC(F)(F)F)cc3)cc2)CC1(Cl)Cl", "note": "(centres unmarked) [drawing 66]", "values": [{"measurement": "Kill rate in % after 6 d", "setting": "[3]", "result": 100, "unit": "%"}]}, {"compound": "Fc1cccc(F)c1C1=NC(c2ccc(-c3ccc(OC(F)(F)F)cc3)cc2)CC1Cl", "note": "(centres unmarked) [drawing 67]", "values": [{"measurement": "Kill rate in % after 6 d", "setting": "[3]", "result": 100, "unit": "%"}]}, {"compound": "O=S(=O)(Oc1ccc([C@H]2CC(Br)C(c3c(F)cccc3F)=N2)cc1)C(F)(F)F", "note": "(some centres unmarked) [drawing 74]", "values": [{"measurement": "Kill rate in % after 7 d", "setting": "[2]", "result": 100, "unit": "%"}]}, {"compound": "Fc1cccc(F)c1C1=NC(c2ccc(-c3ccc(OC(F)(F)F)cc3)cc2)CC1(Cl)Cl", "note": "(centres unmarked) [drawing 69]", "values": [{"measurement": "Kill rate in % after 7 d", "setting": "[2]", "result": 100, "unit": "%"}]}, {"compound": "O=S(=O)(Oc1ccc(-c2ccc([C@H]3C[C@H](Cl)C(c4c(F)cccc4F)=N3)cc2)cc1)C(F)(F)F", "note": "[drawing 86]", "values": [{"measurement": "Kill rate in % after 48 h", "setting": "Lucilia cuprina larvae", "result": 100, "unit": "%"}]}, {"compound": "Fc1cccc(F)c1C1=NC(c2ccc(-c3ccc(OC(F)(F)F)cc3)cc2)CC1(Cl)Cl", "note": "(centres unmarked) [drawing 52]", "values": [{"measurement": "Kill rate in % after 6 d", "setting": "[5]", "result": 100, "unit": "%"}]}, {"compound": "Fc1cccc(F)c1C1=N[C@@H](c2ccc(-c3ccc(OC(F)(F)F)cc3)cc2)CC1(Cl)Cl", "note": "[drawing 85]", "values": [{"measurement": "Kill rate in % after 48 h", "setting": "Lucilia cuprina larvae", "result": 100, "unit": "%"}]}, {"compound": "Fc1cccc(F)c1C1=N[C@@H](c2ccc(-c3ccc(OC(F)(F)F)cc3)cc2)CC1(Cl)Cl", "note": "[drawing 54]", "values": [{"measurement": "Kill rate in % after 6 d", "setting": "[5]", "result": 100, "unit": "%"}]}, {"compound": "O=S(=O)(Oc1ccc(-c2ccc([C@H]3C[C@H](Cl)C(c4c(F)cccc4F)=N3)cc2)cc1)C(F)(F)F", "note": "[drawing 55]", "values": [{"measurement": "Kill rate in % after 14 d", "setting": "[7]", "result": 100, "unit": "%"}]}, {"compound": "Fc1cccc(F)c1C1=NC(c2ccc(-c3ccc(OC(F)(F)F)cc3)cc2)CC1(Cl)Cl", "note": "(centres unmarked) [drawing 87]", "values": [{"measurement": "Effect on ecdysis in %", "setting": "[4]", "result": 100, "unit": "%"}]}]}
